Values quoted from earlier work as cited in patent EP2932963A1, “Stable pharmaceutical dosage forms comprising Levothyroxine sodium” (Uni-Pharma Kleon Tsetis Pharmaceutical Laboratories S.A., priority 2014, dated 2015).
Where two headings read alike, the source gives them in different places.

Experiments:
[1] = dependence on pH

pKa (amino group): 9.96 | pKa (carboxyl group): 2.4 | pKa (phenolic group): 6.87
SMILES: N[C@@H](Cc1cc(I)c(Oc2cc(I)c(O)c(I)c2)c(I)c1)C(=O)O [Levothyroxine]
aqueous solubility [1]: reduces from pH 1 to 3 and increases above pH 7
